Assay results taken from patent publication US12507703B2, “Methods, devices and compositions for preserving human milk” (The Trustees of Princeton University, priority 2023, dated 2025).
Values joined by “and” are separate entries in the source; they are usually repeats but may differ in a detail not shown here. Equal entries are not always repeated.
Note: test concentration or dose not given here.

Each compound was assayed on lipase (assay: Lipase/lipolysis assay (EnzChek Lipase Substrate, quenched BODIPY-fatty acid conjugate) on stored human milk). Settings: not given.
COc1ccc(-c2oc3c(OC)c(O)cc(O)c3c(=O)c2O)cc1 [Prudomestin] was tested, and the “Lipase (RFU)” value was 894.1495 RFU.
For COc1cc(O)c2c(=O)c(-c3ccc(O)cc3)coc2c1 [Prunetin], the “Lipase (RFU)” value was 865.5495 RFU.
In the case of CC(C)=CCc1cc2c(cc1O)oc(=O)c1c3ccc(O)cc3oc21 [Psoralidin], the “Lipase (RFU)” value is reported as 1084.87 RFU.
For CC(C)=C1CC[C@@H](C)CC1=O [Pulegone], the “Lipase (RFU)” value was 791.7693 RFU and 1146.187 RFU.
In the case of O=C(O)c1cccc(O)c1O [Pyrocatechuic acid], the “Lipase (RFU)” value is reported as 896.9439 RFU.
With O=P(O)(O)OP(=O)(O)O [Pyrophosphate] the “Lipase (RFU)” value was 1218.619 RFU and 873.0451 RFU.
In the case of O=Cc1ccc[nH]1 [Pyrrole-2-carboxaldehyde], the “Lipase (RFU)” value is reported as 882.4774 RFU.
In the case of O=c1c(O)c(-c2ccc(O)c(O)c2)oc2cc(O)c(O)c(O)c12 [Quercetagetin], the “Lipase (RFU)” value is reported as 891.7095 RFU.
For C[C@@H]1O[C@@H](O[C@H]2[C@H](Oc3c(-c4ccc(O)c(O)c4)oc4cc(O)cc(O)c4c3=O)O[C@H](CO)[C@@H](O)[C@@H]2O)[C@H](O)[C@H](O)[C@H]1O [Quercetin 3-O-neohesperidoside], the “Lipase (RFU)” value was 838.5308 RFU.
O=c1c(O[C@@H]2O[C@H](CO[C@@H]3O[C@H](CO)[C@@H](O)[C@H](O)[C@H]3O)[C@@H](O)[C@H](O)[C@H]2O)c(-c2ccc(O)c(O)c2)oc2cc(O)cc(O)c12 [Quercetin 3-gentiobioside] was tested, and the “Lipase (RFU)” value was 676.8795 RFU.
For O.O.O=c1c(O)c(-c2ccc(O)c(O)c2)oc2cc(O)cc(O)c12 [Quercetin (dihydrate)], the “Lipase (RFU)” value was 1081.937 RFU.
For O=c1c(O)c(-c2ccc(O)c(O)c2)oc2cc(O[C@@H]3O[C@H](CO)[C@@H](O)[C@H](O)[C@H]3O)cc(O)c12 [Quercimeritrin], the “Lipase (RFU)” value was 857.409 RFU.
In the case of O=C(O)c1ccc2ccccc2n1 [Quinoline-2-carboxylic acid], the “Lipase (RFU)” value is reported as 994.8984 RFU.
For CC(=O)CCc1ccc(O[C@@H]2O[C@H](CO)[C@@H](O)[C@H](O)[C@H]2O)cc1 [Raspberry ketone glucoside], the “Lipase (RFU)” value was 1167.769 RFU.
For O=CCCO [Reuterin], the “Lipase (RFU)” value was 1125.363 RFU.
For O=C(O)c1cc(O)c2c(c1)C(=O)c1cccc(O[C@@H]3O[C@H](CO)[C@@H](O)[C@H](O)[C@H]3O)c1C2=O [Rhein 8-Glucoside], the “Lipase (RFU)” value was 942.9082 RFU.
C=C(C)[C@H]1Cc2c(ccc3c2O[C@@H]2COc4cc(OC)c(OC)cc4[C@@H]2C3=O)O1 [Rotenone] was tested, and the “Lipase (RFU)” value was 542.204 RFU.
For CC(C)(O)[C@@H]1Cc2cc3ccc(=O)oc3cc2O1 [S-(+)-Marmesin], the “Lipase (RFU)” value was 984.7966 RFU.
In the case of Nc1ncnc2c1ncn2[C@@H]1O[C@H](CSCC[C@H](N)C(=O)O)[C@@H](O)[C@H]1O [SAH], the “Lipase (RFU)” value is reported as 641.7279 RFU.
With CC1=C(C=O)C(C)(C)CC=C1 [Safranal] the “Lipase (RFU)” value was 1026.753 RFU and 1118.736 RFU.
In the case of CC1=C2[C@H]3OC(=O)[C@@H](C)[C@@H]3CC[C@@]2(C)C=CC1=O [Santonin], the “Lipase (RFU)” value is reported as 895.7689 RFU.
For CC1(C)CCC[C@]2(C)[C@H]3CC(=O)O[C@]3(C)CC[C@@H]12 [Sclareolide], the “Lipase (RFU)” value was 845.6458 RFU.
C[Se]C[C@H](N)C(=O)O [Se-Methylselenocysteine] was tested, and the “Lipase (RFU)” value was 889.6084 RFU.
CCC(C)N (centres unmarked) [Sec-Butylamine] was tested, and the “Lipase (RFU)” value was 784.9928 RFU.
COc1cc(C[C@@H](CO)[C@H](CO)Cc2ccc(O)c(OC)c2)ccc1O [Secoisolariciresinol] was tested, and the “Lipase (RFU)” value was 1112.005 RFU.
With OC[C@@]12OC[C@@H](O1)[C@@H](O)[C@@H](O)[C@@H]2O [Sedoheptulosan] the “Lipase (RFU)” value was 1068.783 RFU.
In the case of O=C(O)c1cc(O)c2c(c1)[C@H]([C@H]1c3cc(C(=O)O)cc(O)c3C(=O)c3c(O[C@@H]4O[C@H](CO)[C@@H](O)[C@H](O)[C@H]4O)cccc31)c1cccc(O[C@@H]3O[C@H](CO)[C@@H](O)[C@H](O)[C@H]3O)c1C2=O [Sennoside A], the “Lipase (RFU)” value is reported as 1002.323 RFU.

Same assay, conditions: (hydrochloride)
With Cc1ncc(CO)c(CO)c1O.Cl [Pyridoxine (hydrochloride)] the “Lipase (RFU)” value was 911.6428 RFU and 799.8007 RFU.

Same assay, conditions: (monohydrate)
C[C@H](O)[C@H](O)[C@@H](O)[C@@H](O)C=O.O [Rhamnose (monohydrate)] was tested, and the “Lipase (RFU)” value was 978.8722 RFU and 922.0222 RFU.
